For one compound, solubility results are on record in patent EP4285895A1, “NITROFURANTOIN ORAL DOSAGE FORM” (Adalvo Limited, priority 2022, dated 2023).

For orientation: solubility means the dissolved amount per volume that the medium holds. A higher solubility goes with a readily soluble substance.

This data set can be described thus: physchem.

Structures are written as SMILES. Values after ≈ are worked out from the molar mass of the structure shown.

Consider `O=C1CN(N=Cc2ccc([N+](=O)[O-])o2)C(=O)N1` [Macrocrystals, 1-[[[5-nitro-2-furanyl]methylene]amino]-2,4-imidazolidinedione], for which the solubility (0.01N HCl, simulated gastric fluid) was 140 µg/mL (≈ 588 µM); the solubility (0.1N HCl, simulated gastric fluid) was 140 µg/mL (≈ 588 µM); the solubility (acetate buffer, pH 4.5, aqueous buffer) was determined as 50 µg/mL (≈ 210 µM); the solubility (phosphate buffer, pH 6.8, aqueous buffer) was determined as 200 µg/mL (≈ 840 µM); the solubility (phosphate buffer, pH 7.5, aqueous buffer) turned out to be 620 µg/mL (≈ 2600 µM); the concentration in solution (water) (solubility) came to 160 µg/mL (≈ 672 µM).
